Data: article PMC4603724 (ACS Medicinal Chemistry Letters, 2015)

Target: protein disulfide isomerase (PDI) (Homo sapiens, UniProt P07237)
Test: 1H-15N HSQC NMR chemical shift perturbation
Assay type: binding

protein disulfide isomerase (PDI), sequence (P07237 18-137): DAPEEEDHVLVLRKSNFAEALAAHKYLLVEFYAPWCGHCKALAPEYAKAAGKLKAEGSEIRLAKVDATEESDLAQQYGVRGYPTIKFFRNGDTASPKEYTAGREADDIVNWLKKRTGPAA

O=C1C=C2C=C[C@@H]3C[C@@]2(O1)[C@H]1CCCCN31 [IBS141, securinine]
Kd: 758 ± 129 µM
